Among the data in patent US11535621B2, “Heterobicyclic amides as inhibitors of CD38” (Ribon Therapeutics, Inc., priority 2019, dated 2022) are IC50 values, retold here.

Structures are written as SMILES. pIC50: −log10 of the molar value.

Usually pIC50 stands for the negative decadic logarithm of the IC50, by convention in mol/L.

Human CD38, sequence (P28907 whole entry): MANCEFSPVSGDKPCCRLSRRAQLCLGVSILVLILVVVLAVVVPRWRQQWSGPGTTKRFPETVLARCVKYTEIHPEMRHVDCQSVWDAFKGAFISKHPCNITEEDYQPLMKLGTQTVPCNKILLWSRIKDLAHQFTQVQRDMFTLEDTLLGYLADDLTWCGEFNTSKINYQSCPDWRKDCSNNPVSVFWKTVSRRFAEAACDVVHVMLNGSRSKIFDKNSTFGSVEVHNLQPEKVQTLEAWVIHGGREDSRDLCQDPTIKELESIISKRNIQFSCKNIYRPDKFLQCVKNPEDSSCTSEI

The test concerns the target Human CD38 (Homo sapiens (Human), UniProt P28907). The test can be described thus: CD38 enzyme assay. In kind it is biochemical. The settings on record: 2 nM CD38, NAD+ substrate, absorbance at 405 nm. A digest of the protocol: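 IC50 values come from fitting % inhibition against compound concentration with a 4-parameter logistic, or a 3-parameter fit with top/bottom fixed at 100/0 or Hill at 1. Inhibition is scaled between DMSO wells and positive-control wells treated with a quinolinone CD38 inhibitor.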
In the case of `O=C(N[C@H]1CC[C@H](N2CC(C(F)(F)F)C2)CC1)c1nc(-n2ccnc2)cc2cn[nH]c12` [Example 234, 5-(1H-imidazol-1-yl)-N-((1r,4r)-4-(3-(trifluoromethyl)azetidin-1-yl)cyclohexyl)-1H-pyrazolo[3,4-c]pyridine-7-carboxamide], the pIC50 is 7.00 to 8.00. Consider `CC(F)(F)CN[C@H]1CC[C@H](NC(=O)c2nc(-n3ccnc3)nc3cc[nH]c23)CC1` [Example 235, N-((1r,4r)-4-((2,2-difluoropropyl)amino)cyclohexyl)-2-(1H-imidazol-1-yl)-5H-pyrrolo[3,2-d]pyrimidine-4-carboxamide], for which the pIC50 was 7.00 to 8.00. On to `O=C(Nc1ccc2c(c1)CNC2)c1nc(-n2ccnc2)cc2cn[nH]c12` [Example 236, 5-(1H-imidazol-1-yl)-N-(isoindolin-5-yl)-1H-pyrazolo[3,4-c]pyridine-7-carboxamide], for which the pIC50 is above 8.00.

`CC(=O)N1Cc2ccc(NC(=O)c3nc(-n4ccnc4)cc4cn[nH]c34)cc2C1` [Example 237, N-(2-acetylisoindolin-5-yl)-5-(1H-imidazol-1-yl)-1H-pyrazolo[3,4-c]pyridine-7-carboxamide] had a pIC50 above 8.00. With `O=C(N[C@H]1CC[C@H](C2(O)CC2)CC1)c1nc(-n2ccnc2)nc2cn[nH]c12` [Example 238, N-((1r,4r)-4-(1-hydroxycyclopropyl)cyclohexyl)-5-(1H-imidazol-1-yl)-1H-pyrazolo[4,3-d]pyrimidine-7-carboxamide] the figure was above 8.00. As for `C[C@]1(NCC(F)(F)F)CC[C@@H](NC(=O)c2nc(-n3ccnc3)cc3cn[nH]c23)CC1` [Example 239, 5-(1H-imidazol-1-yl)-N-((1s,4s)-4-methyl-4-((2,2,2-trifluoroethyl)amino)cyclohexyl)-1H-pyrazolo[3,4-c]pyridine-7-carboxamide], the pIC50 was above 8.00.

`C[C@]1(NCC(F)(F)F)CC[C@H](NC(=O)c2nc(-n3ccnc3)cc3cn[nH]c23)CC1` [Example 240, 5-(1H-imidazol-1-yl)-N-((1r,4r)-4-methyl-4-((2,2,2-trifluoroethyl)amino)cyclohexyl)-1H-pyrazolo[3,4-c]pyridine-7-carboxamide] gave a pIC50 of 6.00 to 7.00. Compound `O=C(N[C@H]1CC[C@H](N2CC(C(F)(F)F)C2)CC1)c1nc(-n2ccnc2)nc2cn[nH]c12` [Example 241, 5-(1H-imidazol-1-yl)-N-((1r,4r)-4-(3-(trifluoromethyl)azetidin-1-yl)cyclohexyl)-1H-pyrazolo[4,3-d]pyrimidine-7-carboxamide] showed a pIC50 of 7.00 to 8.00. As to `CNC(=O)[C@H]1CC[C@H](NC(=O)c2nc(-n3ccnc3)nc3cn[nH]c23)CC1` [Example 242, 5-(1H-imidazol-1-yl)-N-((1r,4r)-4-(methylcarbamoyl)cyclohexyl)-1H-pyrazolo[4,3-d]pyrimidine-7-carboxamide], the pIC50 is 7.00 to 8.00. The compound `CC(=O)NC[C@H]1CC[C@H](NC(=O)c2nc(-n3ccnc3)nc3cn[nH]c23)CC1` [Example 243, N-((1r,4r)-4-(acetamidomethyl)cyclohexyl)-5-(1H-imidazol-1-yl)-1H-pyrazolo[4,3-d]pyrimidine-7-carboxamide] showed a pIC50 of 7.00 to 8.00. As for `CC(F)(F)CN[C@H]1CC[C@H](NC(=O)c2nc(-n3ccnc3)nc3cn[nH]c23)CC1` [Example 244, N-((1r,4r)-4-((2,2-difluoropropyl)amino)cyclohexyl)-5-(1H-imidazol-1-yl)-1H-pyrazolo[4,3-d]pyrimidine-7-carboxamide], the pIC50 is 7.00 to 8.00. `O=C(NCCC(F)F)c1nc(-n2ccnc2)cc2cn[nH]c12` [Example 245, N-(3,3-difluoropropyl)-5-(1H-imidazol-1-yl)-1H-pyrazolo[3,4-c]pyridine-7-carboxamide] gave a pIC50 of 7.00 to 8.00. With `CC(F)(F)CN[C@H]1CC[C@H](NC(=O)c2nc(-n3ccnc3)nc3ccsc23)CC1` [Example 246, N-((1r,4r)-4-((2,2-difluoropropyl)amino)cyclohexyl)-2-(1H-imidazol-1-yl)thieno[3,2-d]pyrimidine-4-carboxamide] the figure was 7.00 to 8.00; with `CN(CC(F)(F)F)[C@H]1CC[C@H](NC(=O)c2nc(-n3ccnc3)nc3cn[nH]c23)CC1` [Example 248, 5-(1H-imidazol-1-yl)-N-((1r,4r)-4-(methyl(2,2,2-trifluoroethyl)amino)cyclohexyl)-1H-pyrazolo[4,3-d]pyrimidine-7-carboxamide], 7.00 to 8.00; with `O=C(N[C@H]1CC[C@H](OCCC(F)(F)F)CC1)c1nc(-n2ccnc2)cc2cn[nH]c12` [Example 249, 5-(1H-imidazol-1-yl)-N-((1r,4r)-4-(3,3,3-trifluoropropoxy)cyclohexyl)-1H-pyrazolo[3,4-c]pyridine-7-carboxamide], above 8.00. Compound `O=C(N[C@H]1CC[C@H](CNCC(F)(F)F)CC1)c1nc(-n2ccnc2)cc2cn[nH]c12` [Example 250, 5-(1H-imidazol-1-yl)-N-((1r,4r)-4-(((2,2,2-trifluoroethyl)amino)methyl)cyclohexyl)-1H-pyrazolo[3,4-c]pyridine-7-carboxamide] had a pIC50 of 7.00 to 8.00. `O=C(N[C@H]1CC[C@@H](OCC(F)(F)F)CC1)c1nc(-n2ccnc2)cc2cn[nH]c12` [Example 251, 5-(1H-imidazol-1-yl)-N-((1s,4s)-4-(2,2,2-trifluoroethoxy)cyclohexyl)-1H-pyrazolo[3,4-c]pyridine-7-carboxamide] gave a pIC50 of 7.00 to 8.00.

With `O=C(N[C@H]1CC[C@H](OCC(F)(F)F)CC1)c1nc(-n2ccnc2)cc2cn[nH]c12` [Example 252, 5-(1H-imidazol-1-yl)-N-((1r,4r)-4-(2,2,2-trifluoroethoxy)cyclohexyl)-1H-pyrazolo[3,4-c]pyridine-7-carboxamide], the negative-log IC50 (pIC50) was 7.00 to 8.00.

Consider `CC(C)(N[C@H]1CC[C@H](NC(=O)c2nc(-n3ccnc3)cc3cn[nH]c23)CC1)C(F)F` [Example 253, N-((1r,4r)-4-((1,1-difluoro-2-methylpropan-2-yl)amino)cyclohexyl)-5-(1H-imidazol-1-yl)-1H-pyrazolo[3,4-c]pyridine-7-carboxamide], for which the pIC50 is 7.00 to 8.00. The figure for `CC(C)(N[C@H]1CC[C@@H](NC(=O)c2nc(-n3ccnc3)cc3cn[nH]c23)CC1)C(F)F` [Example 254, N-((1s,4s)-4-((1,1-difluoro-2-methylpropan-2-yl)amino)cyclohexyl)-5-(1H-imidazol-1-yl)-1H-pyrazolo[3,4-c]pyridine-7-carboxamide] is 6.00 to 7.00; for `O=C(N[C@H]1CC[C@H](N2CC(F)(F)C2)CC1)c1nc(-n2ccnc2)nc2cn[nH]c12` [Example 255, N-((1r,4r)-4-(3,3-difluoroazetidin-1-yl)cyclohexyl)-5-(1H-imidazol-1-yl)-1H-pyrazolo[4,3-d]pyrimidine-7-carboxamide] it is 7.00 to 8.00. Consider `CC1(F)CN([C@H]2CC[C@@H](NC(=O)c3nc(-n4ccnc4)nc4cn[nH]c34)CC2)C1` [Example 256, N-((1s,4s)-4-(3-fluoro-3-methylazetidin-1-yl)cyclohexyl)-5-(1H-imidazol-1-yl)-1H-pyrazolo[4,3-d]pyrimidine-7-carboxamide], for which the pIC50 was 6.00 to 7.00. In turn, `CC1(F)CN([C@H]2CC[C@H](NC(=O)c3nc(-n4ccnc4)nc4cn[nH]c34)CC2)C1` [Example 257, N-((1r,4r)-4-(3-fluoro-3-methylazetidin-1-yl)cyclohexyl)-5-(1H-imidazol-1-yl)-1H-pyrazolo[4,3-d]pyrimidine-7-carboxamide] had a pIC50 of 7.00 to 8.00.
